Reference: patent publication US20060247862A1, “Determining cell cycle phase data” (priority 2003, published 2006)

System: U2OS cells
Assay: Effect of cell cycle blocking agents on GFP fluorescence from cell cycle phase marker using transiently transfected cells
Format: cell-based
Conditions: U2OS cells transiently transfected with cyclin B1 promoter/D-box/CRS-GFP construct; 24 hours exposure; compared to control cells (culture media alone); confocal imaging
Method: U2OS cells (ATCC HTB-96) were cultured in wells of a 96 well microtitre plate. Cells were transfected with a cell cycle reporter construct prepared according to Example 1, comprising a cyclin B1 promoter operably linked to sequences encoding the cyclin B1 D-box, the cyclin B1 CRS, and GFP in a pCORON4004 vector (Amersham Biosciences) using Fugene 6 (Roche) as the transfection agent.
Following 24 hours of culture, cells were exposed to the specific cell cycle blockers mimosine (blocks at G1/S phase boundary) or demecolcine (blocks in M phase). Control cells were exposed to culture media alone.
Cells were incubated for a further 24 hours and then analysed for nuclear GFP expression using a confocal scanning imager with automated image analysis (IN Cell Analysis System, Amersham Biosciences).

Row | Structure (SMILES) | GFP fluorescence (nuclear GFP expression) from cell cycle phase marker
1 | CN[C@H]1CCc2cc(OC)c(OC)c(OC)c2-c2ccc(OC)c(=O)cc21 [demecolcine] | increased fluorescence compared to control cells
2 | NC(Cn1ccc(=O)c(O)c1)C(=O)O (centres unmarked) [mimosine] | decreased fluorescence compared to control cells
